In BindingDB's records for patent US20250340565 (AdoRx Therapeutics, 2025):
pIC50: −log10 of the molar value.

Molecular target: T1, 5'-nucleotidase [27-547] (UniProt P21589)
T1 construct: 27-547
T1 sequence (P21589 whole entry): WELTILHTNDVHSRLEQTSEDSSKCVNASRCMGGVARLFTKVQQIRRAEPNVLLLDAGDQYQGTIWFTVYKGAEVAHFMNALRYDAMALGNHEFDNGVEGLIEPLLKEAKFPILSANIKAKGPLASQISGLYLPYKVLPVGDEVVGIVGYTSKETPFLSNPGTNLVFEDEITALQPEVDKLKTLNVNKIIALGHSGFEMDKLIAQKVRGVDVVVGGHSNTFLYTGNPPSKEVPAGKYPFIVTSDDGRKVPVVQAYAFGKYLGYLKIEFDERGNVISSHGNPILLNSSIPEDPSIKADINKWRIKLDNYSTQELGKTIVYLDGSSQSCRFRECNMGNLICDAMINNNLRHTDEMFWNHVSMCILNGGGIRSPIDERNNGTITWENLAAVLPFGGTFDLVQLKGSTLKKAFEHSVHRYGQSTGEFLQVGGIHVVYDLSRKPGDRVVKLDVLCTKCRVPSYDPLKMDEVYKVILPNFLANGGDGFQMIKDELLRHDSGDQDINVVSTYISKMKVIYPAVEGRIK
Test: CD73 Inhibition Assay
Description: Compound inhibition of human (h)CD73 (amino acids Trp27-Lys547, R&D Systems 5795-EN-500) enzymatic activity was tested via the Malachite Green Phosphate Detection Kit (R&D DY996). Experiments were performed in 20 μL Tris buffer (25 mM Tris pH 7.5, 5 mM MgCl2, 0.002% Tween20), with 250 pM of hCD73. Test compounds of interest were prepared in a threefold serial dilution in DMSO and added to the assay to give the appropriate final concentration, with the assay DMSO concentration being 1%. Compounds were pre-incubated for 20 minutes with hCD73 in a 384 well clear plate (Greiner 781101), followed by the addition of adenosine monophosphate (AMP) to 12.5 μM. The enzymatic reaction was carried out for 20 min at room temperature. 5 μL of Malachite kit reagent A was added to stop the reaction (contains 3M H2SO4) and after 10 min, 5 μL of Malachite kit reagent B was added (Malachite Green). After 30 min, absorbance at 620 nm was read on a BMG Pherastar FSX.

Compound: O=c1[nH]cc(-n2cc3c(N4C[C@@H]5COC[C@H]5C4)ncnc3n2)c(=O)[nH]1 [US20250340565, Example 13.10]
- pIC50: 6.05
